Where two headings read alike, the source gives them in different places.
Tests used:
[1] = Human intestinal absorption percentage values of the PreHIA data set (732 compounds, Table S2); conditions: class from HIA value
[2] = cited from earlier work
[3] = in vivo
[4] = human, PreHIA data set, value given as fraction

SMILES | Class(High: HIA value ≥0.7; Low: HIA value < 0.7) [1] | HIA(Human Intestinal Absorption) [2, 4] | Class(High: HIA value ≥0.7; Low: HIA value < 0.7) [3] | HIA(Human Intestinal Absorption) ([2]; in vivo)
CN1C(C(=O)Nc2ccccn2)=C(O)c2sc(Cl)cc2S1(=O)=O [Lornoxicam] | High (High: HIA value ≥0.7) | 1 | – | –
CCc1[nH]c(=O)[nH]c1C(=O)c1ccncc1 [Piroximone] | High (High: HIA value ≥0.7) | 0.8 | – | –
CC(C)=CCC1C(=O)N(c2ccccc2)N(c2ccccc2)C1=O [Feprazone] | High (High: HIA value ≥0.7) | 0.9 | – | –
O=C1CC2(CCCC2)CC(=O)N1CCCCN1CCN(c2ncccn2)CC1 [Buspirone] | High (High: HIA value ≥0.7) | 1 | – | –
COCCOc1cnc(NS(=O)(=O)c2ccccc2)nc1 [Glymidine] | High (High: HIA value ≥0.7) | 0.95 | – | –
CCN(CC)CCOC(=O)C1(C2CCCCC2)CCCCC1 [Dicyclomine] | High (High: HIA value ≥0.7) | 1 | – | –
CN1[C@@H]2CC[C@H]1C[C@@H](OC(=O)c1c[nH]c3ccccc13)C2 [Tropisetron] | High (High: HIA value ≥0.7) | 0.95 | – | –
O=[N+]([O-])c1ccc(O)c2ncccc12 [Nitroxoline] | High (High: HIA value ≥0.7) | 1 | – | –
CN1C[C@H](C(=O)N[C@]2(C)O[C@@]3(O)[C@@H]4CCCN4C(=O)[C@H](Cc4ccccc4)N3C2=O)C[C@@H]2c3cccc4[nH]cc(c34)C[C@H]21 [Dihydroergotamine] | Low (Low: HIA value < 0.7) | 0.35 | – | –
COc1cc(C)c([S+](C)[O-])cc1OC (centres unmarked) [Tolmesoxide] | High (High: HIA value ≥0.7) | 0.98 | – | –
NS(=O)(=O)c1cc(-c2nnn[nH]2)c(NCc2cccs2)cc1Cl [Azosemide] | Low (Low: HIA value < 0.7) | 0.1 | – | –
CCOC(=O)N1CCC(=C2c3ccc(Cl)cc3CCc3cccnc32)CC1 [Loratadine] | High (High: HIA value ≥0.7) | – | – | –
CN1CCC(=C2c3ccccc3CC(=O)c3sccc32)CC1 [Ketotifen] | High (High: HIA value ≥0.7) | 0.9 | – | –
CN1CCC(=C2c3ccccc3C=Cc3ccccc32)CC1 [Cyproheptadine] | High (High: HIA value ≥0.7) | 0.8 | – | –
C#C[C@]1(O)CC[C@H]2[C@@H]3CCC4=CCCC[C@@H]4[C@H]3CC[C@@]21C [Lynestrenol] | High (High: HIA value ≥0.7) | 1 | – | –
Cn1nnc2c(C(N)=O)ncn2c1=O [Temozolomide] | High (High: HIA value ≥0.7) | 1 | – | –
C=C[C@H]1C[N@@]2CC[C@H]1C[C@@H]2[C@@H](O)c1ccnc2ccccc12 [Cinchonine] | High (High: HIA value ≥0.7) | 1 | – | –
CNS(=O)(=O)CCc1ccc2[nH]cc(C3CCN(C)CC3)c2c1 [Naratriptan] | High (High: HIA value ≥0.7) | 0.7 | – | –
CC[N+]1(C)[C@@H]2CC(OC(=O)[C@H](CO)c3ccccc3)C[C@H]1[C@@H]1O[C@@H]12 (some centres unmarked) [Oxitropium] | Low (Low: HIA value < 0.7) | 0.16 | – | –
CC1(C)O[C@@H]2C[C@H]3[C@@H]4CCC5=CC(=O)C=C[C@]5(C)[C@@]4(F)[C@@H](O)C[C@]3(C)[C@]2(C(=O)CO)O1 [Triamcinolone_acetonide] | High (High: HIA value ≥0.7) | 0.9 | – | –
COc1ccc2c(C(=S)N(C)CC(=O)O)cccc2c1C(F)(F)F [Tolrestat] | Low (Low: HIA value < 0.7) | 0.66 | – | –
CCOC(=O)C1=C(C)NC(C)=C(C(=O)OCC)C1c1ccccc1/C=C/C(=O)OC(C)(C)C [Lacidipine] | High (High: HIA value ≥0.7) | 0.98 | – | –
CN(C(=O)C(Cl)Cl)c1ccc(O)cc1 [Diloxanide] | High (High: HIA value ≥0.7) | 0.9 | – | –

SMILES | Class(High: HIA value ≥0.7; Low: HIA value < 0.7) [1] | HIA(Human Intestinal Absorption) [2, 4] | Class(High: HIA value ≥0.7; Low: HIA value < 0.7) [3] | HIA(Human Intestinal Absorption) ([2]; in vivo)
O=c1n(CCCN2CCN(c3cccc(Cl)c3)CC2)nc2ccccn12 [Trazodone] | High (High: HIA value ≥0.7) | 1 | – | –
NC(=O)OCC(COC(N)=O)c1ccccc1 [Felbamate] | High (High: HIA value ≥0.7) | 0.9 | – | –
N=C(N)NC(=O)Cc1c(Cl)cccc1Cl [Guanfacine] | High (High: HIA value ≥0.7) | 1 | – | –
O=C(O)[C@H]1/C(=C/CO)O[C@@H]2CC(=O)N21 [Clavulanic_acid] | High (High: HIA value ≥0.7) | 0.75 | – | –
CCCOC(C(=O)OC1CCN(C)CC1)(c1ccccc1)c1ccccc1 [Propiverine] | High (High: HIA value ≥0.7) | 0.84 | – | –
C[C@@H]1CC(=O)NN=C1c1ccc(NN=C(C#N)C#N)cc1 [Levosimendan] | High (High: HIA value ≥0.7) | 0.9 | – | –
CCCc1cc(C(N)=S)ccn1 [Protionamide] | High (High: HIA value ≥0.7) | 0.9 | – | –
O=P(O)(O)C(O)(Cc1cccnc1)P(=O)(O)O [Risedronic_acid] | Low (Low: HIA value < 0.7) | 0.01 | – | –
CCO[C@@H](Cc1ccc(OCCc2ccc(OS(C)(=O)=O)cc2)cc1)C(=O)O [Tesaglitazar] | High (High: HIA value ≥0.7) | 1 | – | –
CC(C)NCC(O)COc1ccc(CCNC(=O)NC(C)C)cc1 (centres unmarked) [Pafenolol] | Low (Low: HIA value < 0.7) | 0.29 | – | –
CC(=O)Nc1ccc(OC(=O)c2ccccc2OC(C)=O)cc1 [Benorylate] | High (High: HIA value ≥0.7) | 1 | – | –
CN(Cc1cc(Br)cc(Br)c1N)C1CCCCC1 [Bromhexine] | High (High: HIA value ≥0.7) | 0.7 | – | –
O=c1[nH]c2ccccc2n1CCCN1CCN(C(c2ccccc2)c2ccccc2)CC1 [Oxatomide] | High (High: HIA value ≥0.7) | 1 | – | –
CCCN(CCC)CCc1cccc2c1CC(=O)N2 [Ropinirole] | High (High: HIA value ≥0.7) | 0.98 | – | –
O=C(O)[C@H](CCc1ccccc1)N[C@H]1CCCN2CCC[C@@H](C(=O)O)N2C1=O [Cilazaprilat] | Low (Low: HIA value < 0.7) | 0.2 | – | –
CC(C(=O)O)c1ccc(C2CCCC(=NO)C2)cc1 (centres unmarked) [Ximoprofen] | High (High: HIA value ≥0.7) | 0.98 | – | –
CC1(C)S[C@@H]2[C@H](NC(=O)[C@H](N)c3ccc(O)cc3)C(=O)N2[C@H]1C(=O)O [Amoxicillin] | High (High: HIA value ≥0.7) | – | – | –
CN(C)CCC=C1c2ccccc2COc2ccccc21 [Doxepin] | High (High: HIA value ≥0.7) | 1 | – | –
C[C@H]([C@](O)(Cn1cncn1)c1ccc(F)cc1F)S(C)(=O)=O [Genaconazole] | High (High: HIA value ≥0.7) | 1 | – | –
C[N+]1(C)CCC(=C(c2ccccc2)c2ccccc2)CC1 [Diphemanil] | Low (Low: HIA value < 0.7) | 0.07 | – | –
C[C@@H]1O[C@@H](O[C@H]2C[C@@H](O)[C@]3(CO)[C@H]4[C@H](O)C[C@]5(C)[C@@H](C6=CC(=O)OC6)CC[C@]5(O)[C@@H]4CC[C@]3(O)C2)[C@H](O)[C@H](O)[C@H]1O [Ouabain] | Low (Low: HIA value < 0.7) | – | – | –
COc1cccc(C2(O)CCCCC2CN(C)C)c1 (centres unmarked) [Tramadol] | – | – | High (key: High: HIA value ≥0.7; Low: HIA value < 0.7) | 0.9
Cc1ccccc1N1C(=O)c2cc(S(N)(=O)=O)c(Cl)cc2N[C@@H]1C [Metolazone(S)] | – | – | Low (key: High: HIA value ≥0.7; Low: HIA value < 0.7) | 0.64

Reference: paper PMC4460250, “Systems Pharmacology Dissecting Holistic Medicine for Treatment of Complex Diseases: An Example Using Cardiocerebrovascular Diseases Treated by TCM” (Evidence-based Complementary and Alternative Medicine : eCAM, 2015)
